For series [1] the following is noted: native GLP-1; cited from earlier work.
Series [2] relates to db/db mice. Nature of the series: Blood glucose control after a single subcutaneous dose in db/db mice. Type of series: in vivo, mouse. Particulars: single s.c. dose, 72 h postinjection.

Where no end group is shown, it is not given here. [ ]: non-standard residue; d: D form. The star is where a group is joined. X1 = CCCCCCCCCCCCCCCC(=O)N[C@@H](CCC(=O)NCCCC[C@H](NC(=O)CCOCCOCCOCCOCCNC(=O)CNC(=O)CCN1C(=O)CC(*)C1=O)C(=O)NCCOCCOCCOCCOCCC(=O)N[C@@H](CCCCNC(=O)CC[C@H](NC(=O)CCCCCCCCCCCCCCCCC(=O)O)C(=O)O)C(=O)OC)C(=O)O; Aib = CC(C)(N)C(=O)O

For the molecule `CC[C@H](C)[C@H](NC(=O)[C@H](Cc1ccccc1)NC(=O)[C@H](CCC(=O)O)NC(=O)[C@H](CCCCN)NC(=O)[C@H](C)NC(=O)[C@H](C)NC(=O)[C@H](CCC(N)=O)NC(=O)CNC(=O)[C@H](CCC(=O)O)NC(=O)[C@H](CC(C)C)NC(=O)[C@H](Cc1ccc(O)cc1)NC(=O)[C@H](CO)NC(=O)[C@H](CO)NC(=O)[C@@H](NC(=O)[C@H](CC(=O)O)NC(=O)[C@H](CO)NC(=O)[C@@H](NC(=O)[C@H](Cc1ccccc1)NC(=O)[C@@H](NC(=O)CNC(=O)[C@H](CCC(=O)O)NC(=O)[C@H](C)NC(=O)[C@@H](N)Cc1c[nH]cn1)[C@@H](C)O)[C@@H](C)O)C(C)C)C(=O)N[C@@H](C)C(=O)N[C@@H](Cc1c[nH]c2ccccc12)C(=O)N[C@@H](CC(C)C)C(=O)N[C@H](C(=O)N[C@@H](CCCCN)C(=O)NCC(=O)N[C@@H](CCCN=C(N)N)C(=O)NCC(=O)O)C(C)C` [GLP-1, glucagon-like peptide-1], in series [1], the intravenous half-life was 1.5 to 2 min.
With “H[Aib]EGTFTSDVSSYLEGQAAKEFIAWLVRGRGGGGSGGGGSGGGGSGC(X1) [TE-8131]”, the “blood sugar reduction (Δglucose from baseline)” value in series [2] is -8.2 ± 1.4 mmol/L.
